# Source: ChEMBL document CHEMBL1201862, “PubChem BioAssay data set” (2004)
# Active and inactive are the calls of the source.
# How the values were obtained:
# BJ [1] = assay: BJ-TERT fibroblast viability loss – cell-based, RAS-independent, luminescence, dose response (AID 1933); type: functional; settings: Homo sapiens
# BJ [2] = assay: cells; type: functional, cell-based; settings: Homo sapiens
# BJ [3] = assay: BJ-TERT-LT-ST fibroblast viability loss – cell-based, RAS-independent, luminescence, dose response (AID 1935); type: functional; settings: Homo sapiens;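 also: BJ fibroblasts immortalized with TERT plus LT and ST oncogenes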
# [4] = DRD fibroblast viability loss – cell-based, non-viral oncogenic, luminescence, dose response (AID 1934); type: functional; settings: Homo sapiens
# [5] = target: T1, Microphthalmia-associated transcription factor (Homo sapiens, UniProt O75030); assay: reducers of TRPM1 reporter luminescence, concentration series – cell-based, SK-MEL-5, cherry-picked, set 3, MITF inhibitor project, dose response (AID 493073); type: functional;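 also: SK-MEL-5 melanoma cells with luciferase driven by the MITF target TRPM1 promoter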
# T1 sequence (O75030 whole entry): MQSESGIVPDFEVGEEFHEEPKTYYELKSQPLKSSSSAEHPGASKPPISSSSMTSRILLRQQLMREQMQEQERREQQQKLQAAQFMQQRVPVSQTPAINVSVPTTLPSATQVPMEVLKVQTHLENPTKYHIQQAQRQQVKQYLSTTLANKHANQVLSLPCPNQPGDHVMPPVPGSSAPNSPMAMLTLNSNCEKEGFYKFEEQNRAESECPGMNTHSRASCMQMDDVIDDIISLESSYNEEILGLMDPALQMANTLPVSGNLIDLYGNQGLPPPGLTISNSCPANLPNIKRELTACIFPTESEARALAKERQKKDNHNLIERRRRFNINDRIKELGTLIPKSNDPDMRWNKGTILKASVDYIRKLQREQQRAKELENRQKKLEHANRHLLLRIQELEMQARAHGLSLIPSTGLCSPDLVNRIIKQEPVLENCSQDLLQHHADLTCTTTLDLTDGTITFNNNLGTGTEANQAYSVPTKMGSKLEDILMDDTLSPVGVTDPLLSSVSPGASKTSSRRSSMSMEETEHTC
# A-375 [6] = assay: MITF: Counter assay: A375 proliferation Measured in Cell-Based System Using Plate Reader - 2084-03_Inhibitor_Dose_DryPowder_Activity. [Related pubchem assays (depositor defined):AID488944]; type: functional; settings: Homo sapiens
# [7] = reduction of Shn3 3'UTR-driven luciferase in osteoblasts – cell-based, Clone20 osteoblasts, firefly luciferase, cherry-picked, dose response (AID 624132); type: functional;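 also: firefly luciferase luminescence from reporter carrying the Shn3 3'UTR in osteoblasts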
# [8] = loss of viability in HepG2 cells – cell-based, CellTiter-Glo, cherry-picked, cytotoxicity control for Shn3 inhibitor project, dose response (AID 624134); type: functional
# [9] = non-specific 3'UTR reporter inhibition in Clone20-Shn3RL – cell-based, Renilla luciferase, cherry-picked, counter-screen for Shn3 inhibitor project, dose response (AID 624133); type: functional
# [10] = target: T2, Tyrosine-protein phosphatase non-receptor type 7 (Homo sapiens, UniProt P35236); type: functional
# T2 sequence (P35236 whole entry): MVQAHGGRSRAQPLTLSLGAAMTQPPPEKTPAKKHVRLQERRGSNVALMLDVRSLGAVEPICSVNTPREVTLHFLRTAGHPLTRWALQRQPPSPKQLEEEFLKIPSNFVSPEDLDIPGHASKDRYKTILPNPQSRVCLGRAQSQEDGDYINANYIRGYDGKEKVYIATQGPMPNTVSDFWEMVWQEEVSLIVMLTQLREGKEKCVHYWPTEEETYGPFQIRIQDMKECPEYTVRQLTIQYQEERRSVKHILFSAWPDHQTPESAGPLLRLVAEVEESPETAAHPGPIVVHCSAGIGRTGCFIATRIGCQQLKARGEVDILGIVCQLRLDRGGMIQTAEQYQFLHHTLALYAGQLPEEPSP
# [11] = target: Glyceraldehyde-3-phosphate dehydrogenase (Homo sapiens, UniProt P04406)
# Glyceraldehyde-3-phosphate dehydrogenase, sequence (P04406 whole entry): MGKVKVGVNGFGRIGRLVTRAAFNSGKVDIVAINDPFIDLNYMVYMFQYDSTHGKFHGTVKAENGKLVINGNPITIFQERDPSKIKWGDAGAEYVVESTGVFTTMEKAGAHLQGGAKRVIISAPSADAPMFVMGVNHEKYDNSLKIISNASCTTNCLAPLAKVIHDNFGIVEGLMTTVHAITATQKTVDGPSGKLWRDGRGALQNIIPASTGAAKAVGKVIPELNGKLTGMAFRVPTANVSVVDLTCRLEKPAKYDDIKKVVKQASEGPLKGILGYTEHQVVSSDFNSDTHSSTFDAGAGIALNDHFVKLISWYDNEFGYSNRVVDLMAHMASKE
# [12] = target: T3, Dual specificity protein phosphatase 6 (Rattus norvegicus, UniProt Q64346)
# T3 sequence (Q64346 whole entry): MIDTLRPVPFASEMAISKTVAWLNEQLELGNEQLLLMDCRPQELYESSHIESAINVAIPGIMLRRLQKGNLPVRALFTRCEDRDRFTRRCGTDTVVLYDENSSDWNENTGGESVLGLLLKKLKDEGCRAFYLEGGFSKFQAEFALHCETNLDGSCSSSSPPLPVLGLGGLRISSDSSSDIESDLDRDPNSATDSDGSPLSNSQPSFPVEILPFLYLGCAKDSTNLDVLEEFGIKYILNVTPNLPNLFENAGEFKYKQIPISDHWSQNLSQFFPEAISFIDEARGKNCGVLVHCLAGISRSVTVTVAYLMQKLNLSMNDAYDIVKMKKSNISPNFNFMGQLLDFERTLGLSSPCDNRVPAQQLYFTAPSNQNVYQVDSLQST
# [13] = target: T3, Dual specificity protein phosphatase 6; type: functional
# [14] = target: T4, Voltage-gated N-type calcium channel alpha-1B subunit/Amyloid beta A4 precursor protein-binding family A member 1 (Homo sapiens, UniProt Q00975+Q02410); type: protein assay
# T4 sequence (Q00975 whole entry): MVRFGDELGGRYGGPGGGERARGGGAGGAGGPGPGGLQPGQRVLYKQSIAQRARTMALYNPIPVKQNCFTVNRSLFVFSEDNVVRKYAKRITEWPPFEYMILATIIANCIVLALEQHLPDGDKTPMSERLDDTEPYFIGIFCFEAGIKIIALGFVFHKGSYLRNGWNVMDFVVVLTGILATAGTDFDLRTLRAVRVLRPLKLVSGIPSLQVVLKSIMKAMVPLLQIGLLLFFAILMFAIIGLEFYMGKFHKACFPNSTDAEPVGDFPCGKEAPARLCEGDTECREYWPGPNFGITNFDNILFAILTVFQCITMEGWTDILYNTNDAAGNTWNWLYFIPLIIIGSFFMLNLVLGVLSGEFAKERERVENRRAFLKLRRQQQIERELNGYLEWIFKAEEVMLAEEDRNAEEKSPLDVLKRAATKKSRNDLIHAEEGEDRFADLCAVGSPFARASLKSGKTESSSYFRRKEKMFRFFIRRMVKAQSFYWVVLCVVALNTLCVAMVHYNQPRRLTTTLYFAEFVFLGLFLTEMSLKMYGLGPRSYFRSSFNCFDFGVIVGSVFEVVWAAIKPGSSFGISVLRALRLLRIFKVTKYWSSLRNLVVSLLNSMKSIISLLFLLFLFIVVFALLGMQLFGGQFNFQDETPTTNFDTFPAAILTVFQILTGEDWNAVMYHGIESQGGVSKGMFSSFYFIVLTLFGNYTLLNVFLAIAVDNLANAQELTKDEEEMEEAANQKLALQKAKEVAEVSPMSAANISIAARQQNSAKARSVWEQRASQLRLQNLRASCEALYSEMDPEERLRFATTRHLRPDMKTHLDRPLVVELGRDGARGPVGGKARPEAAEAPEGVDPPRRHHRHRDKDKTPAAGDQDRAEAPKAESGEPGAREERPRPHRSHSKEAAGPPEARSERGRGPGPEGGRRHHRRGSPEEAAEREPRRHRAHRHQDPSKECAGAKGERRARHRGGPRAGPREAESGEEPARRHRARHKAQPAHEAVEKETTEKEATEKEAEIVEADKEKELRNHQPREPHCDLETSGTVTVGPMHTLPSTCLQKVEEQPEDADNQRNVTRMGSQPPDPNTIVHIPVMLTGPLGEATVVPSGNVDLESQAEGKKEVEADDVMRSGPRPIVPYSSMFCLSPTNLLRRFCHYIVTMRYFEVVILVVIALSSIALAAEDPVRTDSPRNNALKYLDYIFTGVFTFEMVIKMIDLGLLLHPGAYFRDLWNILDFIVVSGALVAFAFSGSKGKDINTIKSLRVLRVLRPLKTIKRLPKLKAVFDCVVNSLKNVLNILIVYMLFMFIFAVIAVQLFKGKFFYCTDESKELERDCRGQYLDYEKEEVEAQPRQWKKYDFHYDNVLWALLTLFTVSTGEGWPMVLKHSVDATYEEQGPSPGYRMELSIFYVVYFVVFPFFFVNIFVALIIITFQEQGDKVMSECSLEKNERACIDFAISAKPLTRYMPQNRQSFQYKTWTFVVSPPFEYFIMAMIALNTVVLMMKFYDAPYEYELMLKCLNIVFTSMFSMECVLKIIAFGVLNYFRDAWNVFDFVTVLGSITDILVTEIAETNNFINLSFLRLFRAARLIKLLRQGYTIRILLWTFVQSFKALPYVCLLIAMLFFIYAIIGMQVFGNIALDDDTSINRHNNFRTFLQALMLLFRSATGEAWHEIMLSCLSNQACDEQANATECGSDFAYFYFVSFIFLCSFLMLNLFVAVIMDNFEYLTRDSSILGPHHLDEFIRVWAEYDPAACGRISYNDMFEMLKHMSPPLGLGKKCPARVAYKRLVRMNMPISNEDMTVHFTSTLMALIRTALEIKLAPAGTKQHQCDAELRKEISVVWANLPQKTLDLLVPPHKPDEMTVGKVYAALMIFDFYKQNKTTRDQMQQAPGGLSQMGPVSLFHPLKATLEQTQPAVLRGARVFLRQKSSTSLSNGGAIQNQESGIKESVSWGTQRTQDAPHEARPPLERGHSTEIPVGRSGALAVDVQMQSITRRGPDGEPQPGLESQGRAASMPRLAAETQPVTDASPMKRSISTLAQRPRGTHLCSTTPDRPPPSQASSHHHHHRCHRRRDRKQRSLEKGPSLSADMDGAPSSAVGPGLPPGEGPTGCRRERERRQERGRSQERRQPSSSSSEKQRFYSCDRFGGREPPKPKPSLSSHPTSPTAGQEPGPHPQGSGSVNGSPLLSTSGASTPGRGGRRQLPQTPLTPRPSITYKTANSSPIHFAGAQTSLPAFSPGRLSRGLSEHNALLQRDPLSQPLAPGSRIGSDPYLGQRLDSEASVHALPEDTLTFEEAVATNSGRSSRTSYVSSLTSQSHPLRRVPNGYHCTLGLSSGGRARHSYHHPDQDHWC
# T4 sequence (Q02410 whole entry): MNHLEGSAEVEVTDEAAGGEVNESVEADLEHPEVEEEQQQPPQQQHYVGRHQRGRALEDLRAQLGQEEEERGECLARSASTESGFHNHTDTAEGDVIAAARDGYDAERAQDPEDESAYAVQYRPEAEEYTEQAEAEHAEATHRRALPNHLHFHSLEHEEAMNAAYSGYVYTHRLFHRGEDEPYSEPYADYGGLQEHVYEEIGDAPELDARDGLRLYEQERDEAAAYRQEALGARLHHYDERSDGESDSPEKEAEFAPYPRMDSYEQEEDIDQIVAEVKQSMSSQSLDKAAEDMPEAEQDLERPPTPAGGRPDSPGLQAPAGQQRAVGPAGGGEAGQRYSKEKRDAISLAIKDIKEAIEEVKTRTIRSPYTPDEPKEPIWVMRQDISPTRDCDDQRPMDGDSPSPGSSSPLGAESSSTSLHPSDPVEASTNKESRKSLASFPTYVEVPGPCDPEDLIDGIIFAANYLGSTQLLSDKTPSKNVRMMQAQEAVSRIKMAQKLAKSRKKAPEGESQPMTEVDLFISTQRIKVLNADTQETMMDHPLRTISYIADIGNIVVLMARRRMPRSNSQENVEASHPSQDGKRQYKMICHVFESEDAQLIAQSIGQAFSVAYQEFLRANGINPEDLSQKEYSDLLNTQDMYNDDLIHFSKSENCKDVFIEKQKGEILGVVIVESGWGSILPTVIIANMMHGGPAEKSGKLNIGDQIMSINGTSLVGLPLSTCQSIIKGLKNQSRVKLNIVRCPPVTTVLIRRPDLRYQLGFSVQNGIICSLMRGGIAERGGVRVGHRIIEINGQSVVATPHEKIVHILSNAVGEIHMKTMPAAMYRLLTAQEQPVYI
# [15] = target: T4, Voltage-gated N-type calcium channel alpha-1B subunit/Amyloid beta A4 precursor protein-binding family A member 1; type: protein assay; remark: listed apart in the source
# [16] = target: T5, Apoptotic protease-activating factor 1 (Homo sapiens, UniProt O14727); assay: activation of Apaf-1 mediated apoptosis – fluorescent, uHTS hits, dose response (AID 588554); type: functional
# T5 sequence (O14727 whole entry): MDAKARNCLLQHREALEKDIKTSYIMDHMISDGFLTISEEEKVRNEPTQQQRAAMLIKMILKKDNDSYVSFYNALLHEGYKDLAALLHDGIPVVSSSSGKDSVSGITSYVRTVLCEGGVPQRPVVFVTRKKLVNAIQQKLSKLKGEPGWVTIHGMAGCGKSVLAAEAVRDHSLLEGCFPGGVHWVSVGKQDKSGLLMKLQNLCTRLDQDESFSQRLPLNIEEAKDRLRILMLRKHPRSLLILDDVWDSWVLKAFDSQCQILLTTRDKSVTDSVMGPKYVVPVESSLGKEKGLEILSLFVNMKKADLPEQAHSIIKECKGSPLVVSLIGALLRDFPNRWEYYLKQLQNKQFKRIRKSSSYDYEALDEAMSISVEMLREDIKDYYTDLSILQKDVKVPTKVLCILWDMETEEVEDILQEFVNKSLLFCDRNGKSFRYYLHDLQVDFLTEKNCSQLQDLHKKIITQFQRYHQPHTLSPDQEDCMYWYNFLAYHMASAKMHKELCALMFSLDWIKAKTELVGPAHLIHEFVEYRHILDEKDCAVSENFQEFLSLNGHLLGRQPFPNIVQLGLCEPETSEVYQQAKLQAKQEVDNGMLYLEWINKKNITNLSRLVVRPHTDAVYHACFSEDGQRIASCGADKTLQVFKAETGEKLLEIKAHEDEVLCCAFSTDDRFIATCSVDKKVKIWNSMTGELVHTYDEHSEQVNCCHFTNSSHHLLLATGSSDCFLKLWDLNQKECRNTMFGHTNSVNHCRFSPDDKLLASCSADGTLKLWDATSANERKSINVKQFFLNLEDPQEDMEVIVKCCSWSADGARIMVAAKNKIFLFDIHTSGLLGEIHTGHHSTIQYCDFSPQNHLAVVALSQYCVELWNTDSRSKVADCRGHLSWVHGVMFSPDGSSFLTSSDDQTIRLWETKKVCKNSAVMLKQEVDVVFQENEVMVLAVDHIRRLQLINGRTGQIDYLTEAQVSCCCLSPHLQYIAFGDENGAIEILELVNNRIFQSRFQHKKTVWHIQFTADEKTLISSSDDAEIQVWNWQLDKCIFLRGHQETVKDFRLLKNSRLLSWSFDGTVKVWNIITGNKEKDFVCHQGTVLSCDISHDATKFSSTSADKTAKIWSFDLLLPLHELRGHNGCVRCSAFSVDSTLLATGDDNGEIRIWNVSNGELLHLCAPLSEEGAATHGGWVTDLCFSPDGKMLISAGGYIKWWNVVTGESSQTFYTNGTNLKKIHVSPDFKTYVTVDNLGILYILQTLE
# [17] = target: T5, Apoptotic protease-activating factor 1; assay: SAR analysis of small molecule Activators of Apaf-1 in a Fluorescent assay.; type: functional; settings: read-out: EC50_Mean
# [18] = target: T6, Small ubiquitin-related modifier 1 (Homo sapiens, UniProt P63165); assay: SUMO1 protein interaction blockers, potency – biochemical, fluorescence polarization, uHTS hits, dose response (AID 624382); type: functional; settings: read-out: IC50_Mean
# T6 sequence (P63165 whole entry): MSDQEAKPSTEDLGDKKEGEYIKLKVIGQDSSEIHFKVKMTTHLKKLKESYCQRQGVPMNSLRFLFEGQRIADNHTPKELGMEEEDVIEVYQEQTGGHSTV
# [19] = target: T6, Small ubiquitin-related modifier 1; assay: SUMO1 protein-protein binding blockers, potency – biochemical, FRET, dose response (AID 624383); type: functional; settings: read-out: IC50_Mean
# [20] = viability of PTEN-deleted HCT116 cells – cell-based, HCT116 PTEN knockout, dose response (AID 1047); type: functional;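 also: HCT116 colon tumor cells with PTEN knocked out; cells exposed to compound for 60 hours before readout; potency for loss of cell viability measured by luminescence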
# [21] = viability of HCT116 lacking mutant beta-catenin – cell-based, human colon tumor, dose response (AID 1045); type: functional;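 also: HCT116 colon tumor cells with beta catenin knocked out; cells exposed to compound for 60 hours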
# [22] = Luminescence Cell-Based Dose Retest to Confirm Inhibitors of Cancer Stem Cells. [Related pubchem assays (depositor defined):AID2717, AID2721]; type: functional; settings: Homo sapiens
# A-375 [23] = assay: proliferation inhibition in MITF-low A375 cells – cell-based, cherry-pick samples, set 2, counter-screen for MITF modulator project, dose response (AID 540335); type: functional; settings: Homo sapiens
# 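For EC50 Mean in this document: caspase-3 cleavage of fluorogenic Rh110 DEVD substrate downstream of apoptosome activation.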
structure (smiles),measurement,setting,value
Cc1cccc(N2C(=O)NC(=O)/C(=C\C=C\c3ccco3)C2=O)c1,EC50,BJ [1],4.02 µM (active)
same,EC50,BJ [2],11.3 µM (active)
same,EC50,BJ [3],4.93 µM (inconclusive)
same,EC50,[4],3.62 µM (active)
same,AC50,[5],5.75 µM (active)
same,AC50,A-375 [6],28.4 µM (active)
same,AC50,[7],3.06 µM (active)
same,AC50,[8],25.6 µM (active)
same,AC50,[9],26.4 µM (active)
CCn1c(SCC(=O)O)nc2sc3c(c2c1=O)CCCC3,IC50,[10],> 100 µM (not active)
same,IC50,[11],> 100 µM (not active)
same,IC50,[12],> 100 µM (inactive)
same,IC50,[13],> 100 µM (inactive)
O=C(Nc1nc2ccsc2c(=O)s1)c1ccco1,IC50,[14],11.8 µM (active)
same,IC50,[15],> 50 µM (inactive)
same,EC50,[16],22.8 µM (active)
same,EC50,[17],59 µM (active)
same,IC50,[18],> 66.6 µM (inactive)
same,IC50,[19],15.9 µM (active)
O=C1C(Cl)=C(Nc2ccccc2)C(=O)c2ccccc21,EC50,[20],8.47 µM (active)
same,EC50,[21],4.77 µM (active)
same,AC50,[22],0.779 µM (active)
same,AC50,[5],2.88 µM (active)
same,AC50,A-375 [23],4.17 µM (active)
